{"source": "PubChem BioAssay AID1963421", "about": "(Molecular Pharmacology Branch, DTP, NCI, 2024)", "test_system": "519858-162-T-J1-PDC complex spheroid growth, % test/control", "assay": "Anticancer human tumor 519858-162-T-J1-PDC patient-derived colon adenocarcinoma cell line growth inhibition [Asc]", "conditions": "for IC50: curve of first compound; for viability, T/C: stronger effect = lower value", "how_it_was_run": "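Concentration series start at each agent's clinical Cmax, or at 10 microM when none is established, and drop in half-log steps; agents are applied alone or together to complex spheroids built with HUVEC and hMSC.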", "key": {"[1]": {"conditions": "second compound 0.00949 µM, first compound 0.0316 µM"}, "[2]": {"conditions": "second compound 0.00949 µM, first compound 0.1 µM"}, "[3]": {"conditions": "second compound 0.00949 µM, first compound 0.316 µM"}, "[4]": {"conditions": "second compound 0.00949 µM, first compound 1 µM"}, "[5]": {"conditions": "second compound 0.03 µM, first compound 0.0316 µM"}, "[6]": {"conditions": "second compound 0.03 µM, first compound 0.1 µM"}, "[7]": {"conditions": "second compound 0.03 µM, first compound 0.316 µM"}, "[8]": {"conditions": "second compound 0.03 µM, first compound 1 µM"}, "[9]": {"conditions": "second compound 0.0949 µM, first compound 0.0316 µM"}, "[10]": {"conditions": "second compound 0.0949 µM, first compound 0.1 µM"}, "[11]": {"conditions": "second compound 0.0949 µM, first compound 0.316 µM"}, "[12]": {"conditions": "second compound 0.0949 µM, first compound 1 µM"}, "[13]": {"conditions": "second compound 0.3 µM, first compound 0.0316 µM"}, "[14]": {"conditions": "second compound 0.3 µM, first compound 0.1 µM"}, "[15]": {"conditions": "second compound 0.3 µM, first compound 0.316 µM"}, "[16]": {"conditions": "second compound 0.3 µM, first compound 1 µM"}, "[17]": {"conditions": "second compound 0.949 µM, first compound 0.0316 µM"}, "[18]": {"conditions": "second compound 0.949 µM, first compound 0.1 µM"}, "[19]": {"conditions": "second compound 0.949 µM, first compound 0.316 µM"}, "[20]": {"conditions": "second compound 0.949 µM, first compound 1 µM"}, "[21]": {"conditions": "second compound 3 µM, first compound 0.0316 µM"}, "[22]": {"conditions": "second compound 3 µM, first compound 0.1 µM"}, "[23]": {"conditions": "second compound 3 µM, first compound 0.316 µM"}, "[24]": {"conditions": "second compound 3 µM, first compound 1 µM"}}, "data": [{"compound": "C=CC(=O)N1CCN(c2nc(=O)n(-c3c(C)ccnc3C(C)C)c3nc(-c4c(O)cccc4F)c(F)cc23)C(C)C1", "note": "(centres undefined) + CCN1C(C(=O)NC23CCC(C(=O)O)(CC2)CC3)C(c2cccc(Cl)c2F)C2(C(=O)Nc3cc(Cl)ccc32)C12CCCCC2;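 note: seven day drug exposure begun three days after spheroid seeding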;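 for viability, T/C: 100% = DMSO vehicle wells and lower values mean less viable spheroid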", "values": [{"measurement": "IC50", "setting": "second compound 0.00949 µM", "value": "> 10", "unit": "µM"}, {"measurement": "IC50", "setting": "second compound 0.03 µM", "value": "> 10", "unit": "µM"}, {"measurement": "IC50", "setting": "second compound 0.0949 µM", "value": "> 10", "unit": "µM"}, {"measurement": "IC50", "setting": "second compound 0.3 µM", "value": "> 10", "unit": "µM"}, {"measurement": "IC50", "setting": "second compound 0.949 µM", "value": "> 10", "unit": "µM"}, {"measurement": "IC50", "setting": "second compound 3 µM", "value": "> 10", "unit": "µM"}, {"measurement": "viability, T/C", "setting": "[1]", "value": 147, "unit": "%"}, {"measurement": "viability, T/C", "setting": "[2]", "value": 110, "unit": "%"}, {"measurement": "viability, T/C", "setting": "[3]", "value": 97.8, "unit": "%"}, {"measurement": "viability, T/C", "setting": "[4]", "value": 108, "unit": "%"}, {"measurement": "viability, T/C", "setting": "second compound 0.00949 µM, first compound 3.16 µM", "value": 99.4, "unit": "%"}, {"measurement": "viability, T/C", "setting": "second compound 0.00949 µM, first compound 10 µM", "value": 82, "unit": "%"}, {"measurement": "viability, T/C", "setting": "[5]", "value": 112, "unit": "%"}, {"measurement": "viability, T/C", "setting": "[6]", "value": 87.7, "unit": "%"}, {"measurement": "viability, T/C", "setting": "[7]", "value": 115, "unit": "%"}, {"measurement": "viability, T/C", "setting": "[8]", "value": 91.9, "unit": "%"}, {"measurement": "viability, T/C", "setting": "second compound 0.03 µM, first compound 3.16 µM", "value": 75.2, "unit": "%"}, {"measurement": "viability, T/C", "setting": "second compound 0.03 µM, first compound 10 µM", "value": 79.7, "unit": "%"}, {"measurement": "viability, T/C", "setting": "[9]", "value": 92.7, "unit": "%"}, {"measurement": "viability, T/C", "setting": "[10]", "value": 106, "unit": "%"}, {"measurement": "viability, T/C", "setting": "[11]", "value": 85.3, "unit": "%"}, {"measurement": "viability, T/C", "setting": "[12]", "value": 99.5, "unit": "%"}, {"measurement": "viability, T/C", "setting": "second compound 0.0949 µM, first compound 3.16 µM", "value": 89.6, "unit": "%"}, {"measurement": "viability, T/C", "setting": "second compound 0.0949 µM, first compound 10 µM", "value": 87.8, "unit": "%"}, {"measurement": "viability, T/C", "setting": "[13]", "value": 88.7, "unit": "%"}, {"measurement": "viability, T/C", "setting": "[14]", "value": 89.3, "unit": "%"}, {"measurement": "viability, T/C", "setting": "[15]", "value": 112, "unit": "%"}, {"measurement": "viability, T/C", "setting": "[16]", "value": 90, "unit": "%"}, {"measurement": "viability, T/C", "setting": "second compound 0.3 µM, first compound 3.16 µM", "value": 106, "unit": "%"}, {"measurement": "viability, T/C", "setting": "second compound 0.3 µM, first compound 10 µM", "value": 116, "unit": "%"}, {"measurement": "viability, T/C", "setting": "[17]", "value": 114, "unit": "%"}, {"measurement": "viability, T/C", "setting": "[18]", "value": 78.7, "unit": "%"}, {"measurement": "viability, T/C", "setting": "[19]", "value": 111, "unit": "%"}, {"measurement": "viability, T/C", "setting": "[20]", "value": 70.8, "unit": "%"}, {"measurement": "viability, T/C", "setting": "second compound 0.949 µM, first compound 3.16 µM", "value": 86.1, "unit": "%"}, {"measurement": "viability, T/C", "setting": "second compound 0.949 µM, first compound 10 µM", "value": 70, "unit": "%"}, {"measurement": "viability, T/C", "setting": "[21]", "value": 86.9, "unit": "%"}, {"measurement": "viability, T/C", "setting": "[22]", "value": 81.7, "unit": "%"}, {"measurement": "viability, T/C", "setting": "[23]", "value": 87, "unit": "%"}, {"measurement": "viability, T/C", "setting": "[24]", "value": 75.1, "unit": "%"}, {"measurement": "viability, T/C", "setting": "second compound 3 µM, first compound 3.16 µM", "value": 74.9, "unit": "%"}, {"measurement": "viability, T/C", "setting": "second compound 3 µM, first compound 10 µM", "value": 91.7, "unit": "%"}]}, {"compound": "CNC(C)C(=O)NC1CN(S(=O)(=O)c2cccc(S(=O)(=O)N3CCC4CCC(C(=O)NC(c5ccccc5)c5ccccc5)N4C(=O)C(NC(=O)C(C)NC)C3)c2)CCC2CCC(C(=O)NC(c3ccccc3)c3ccccc3)N2C1=O", "note": "(centres undefined) + CCN1C(C(=O)NC23CCC(C(=O)O)(CC2)CC3)C(c2cccc(Cl)c2F)C2(C(=O)Nc3cc(Cl)ccc32)C12CCCCC2", "values": [{"measurement": "IC50", "setting": "second compound 0.00949 µM", "value": "< 0.00316", "unit": "µM"}, {"measurement": "IC50", "setting": "second compound 0.03 µM", "value": "> 1", "unit": "µM"}, {"measurement": "IC50", "setting": "second compound 0.0949 µM", "value": "> 1", "unit": "µM"}, {"measurement": "IC50", "setting": "second compound 0.3 µM", "value": "> 1", "unit": "µM"}, {"measurement": "IC50", "setting": "second compound 0.949 µM", "value": "> 1", "unit": "µM"}, {"measurement": "IC50", "setting": "second compound 3 µM", "value": "> 1", "unit": "µM"}, {"measurement": "viability, T/C", "setting": "second compound 0.00949 µM, first compound 0.00316 µM", "value": 49.9, "unit": "%"}, {"measurement": "viability, T/C", "setting": "second compound 0.00949 µM, first compound 0.01 µM", "value": 104, "unit": "%"}, {"measurement": "viability, T/C", "setting": "[1]", "value": 91.5, "unit": "%"}, {"measurement": "viability, T/C", "setting": "[2]", "value": 64.4, "unit": "%"}, {"measurement": "viability, T/C", "setting": "[3]", "value": 98.7, "unit": "%"}, {"measurement": "viability, T/C", "setting": "[4]", "value": 74.6, "unit": "%"}, {"measurement": "viability, T/C", "setting": "second compound 0.03 µM, first compound 0.00316 µM", "value": 112, "unit": "%"}, {"measurement": "viability, T/C", "setting": "second compound 0.03 µM, first compound 0.01 µM", "value": 89.9, "unit": "%"}, {"measurement": "viability, T/C", "setting": "[5]", "value": 88.3, "unit": "%"}, {"measurement": "viability, T/C", "setting": "[6]", "value": 79, "unit": "%"}, {"measurement": "viability, T/C", "setting": "[7]", "value": 54.9, "unit": "%"}, {"measurement": "viability, T/C", "setting": "[8]", "value": 99, "unit": "%"}, {"measurement": "viability, T/C", "setting": "second compound 0.0949 µM, first compound 0.00316 µM", "value": 89.1, "unit": "%"}, {"measurement": "viability, T/C", "setting": "second compound 0.0949 µM, first compound 0.01 µM", "value": 73.9, "unit": "%"}, {"measurement": "viability, T/C", "setting": "[9]", "value": 85.1, "unit": "%"}, {"measurement": "viability, T/C", "setting": "[10]", "value": 75.4, "unit": "%"}, {"measurement": "viability, T/C", "setting": "[11]", "value": 60.4, "unit": "%"}, {"measurement": "viability, T/C", "setting": "[12]", "value": 96.4, "unit": "%"}, {"measurement": "viability, T/C", "setting": "second compound 0.3 µM, first compound 0.00316 µM", "value": 94.6, "unit": "%"}, {"measurement": "viability, T/C", "setting": "second compound 0.3 µM, first compound 0.01 µM", "value": 75.3, "unit": "%"}, {"measurement": "viability, T/C", "setting": "[13]", "value": 81.2, "unit": "%"}, {"measurement": "viability, T/C", "setting": "[14]", "value": 68.2, "unit": "%"}, {"measurement": "viability, T/C", "setting": "[15]", "value": 74.4, "unit": "%"}, {"measurement": "viability, T/C", "setting": "[16]", "value": 58.2, "unit": "%"}, {"measurement": "viability, T/C", "setting": "second compound 0.949 µM, first compound 0.00316 µM", "value": 94.3, "unit": "%"}, {"measurement": "viability, T/C", "setting": "second compound 0.949 µM, first compound 0.01 µM", "value": 87.4, "unit": "%"}, {"measurement": "viability, T/C", "setting": "[17]", "value": 85.7, "unit": "%"}, {"measurement": "viability, T/C", "setting": "[18]", "value": 70.5, "unit": "%"}, {"measurement": "viability, T/C", "setting": "[19]", "value": 68.2, "unit": "%"}, {"measurement": "viability, T/C", "setting": "[20]", "value": 66, "unit": "%"}, {"measurement": "viability, T/C", "setting": "second compound 3 µM, first compound 0.00316 µM", "value": 62, "unit": "%"}, {"measurement": "viability, T/C", "setting": "second compound 3 µM, first compound 0.01 µM", "value": 76.1, "unit": "%"}, {"measurement": "viability, T/C", "setting": "[21]", "value": 72.4, "unit": "%"}, {"measurement": "viability, T/C", "setting": "[22]", "value": 93.9, "unit": "%"}, {"measurement": "viability, T/C", "setting": "[23]", "value": 73.2, "unit": "%"}, {"measurement": "viability, T/C", "setting": "[24]", "value": 74, "unit": "%"}]}]}
